In article PMC6957531, “A butanolic fraction from the standardized stem extract of Cassia occidentalis L delivered by a self-emulsifying drug delivery system protects rats from glucocorticoid-induced osteopenia and muscle atrophy” (Scientific Reports, 2020):

What was measured:
in vivo = settings: rat; for AUC / Cmax / increase of relative bioavailability by CSE-BuF compared to CSE-Bu / %Fr (relative bioavailability): male, Sprague Dawley; for AUC / Cmax / %Fr (relative bioavailability): 250 mg/kg
Method: All analytes were analyzed using API-QTRAP 4000 mass spectrometer (ABSciex, Canada) equipped with electrospray ionization (ESI) source in negative ion ([M-H]^−) mode [apigenin, isovitexin, emodin, luteolin, 3′,4′,7-trihydroxyflavone (THF), and fenofibric acid (FFA)] and quantified using Analyst 1.6 software (Applied Biosystems, MDS Sciex Toronto, Canada). Quantification was performed by multi-reaction monitoring (MRM), by monitoring the parent ion to product ion transition of 269.3/116.9 for apigenin, 431.2/311 for isovitexin, 269.1/224.9 for emodin, 284.9/133 for luteolin, 268.9/132.8 for THF, 316.9/230.9 for FFA (IS for apigenin, isovitexin, emodin, luteolin, and THF). Compound parameters, viz. declustering potential (V), entrance potential (V), collision energy, collision exit potential were −76, −10, −49, and −5 for apigenin; −100, −10, −20 and −15 for isovitexin; −100, −10, −40, and −10 for emodin; −100, −10, −50, and −20 for luteolin; −100, −10, −40, and −10 for THF; −55, −10, −12 and −10 for FFA; respectively. Source parameters, viz. curtain gas (psi), collision gas, ionspray voltage (V), ion source temperature (°C), nebulizer gas (GS1, psi) and turbo ion gas (GS2, psi) for apigenin, isovitexin, emodin, luteolin, THF, and FFA were 30, high, −4500, 500, 50, 50 respectively.
Shimadzu UFLC system (Kyoto, Japan) equipped with a binary pump (LC-20AD), a degasser (DGU-20A3), an autosampler (SIL-HTc) and a column oven (CTO-20AC) was used to inject the samples. The chromatographic separation of apigenin, isovitexin, emodin, luteolin, THF and FFA were performed on Phenomenex Luna (C18 (2), 100A, 150 × 4.6 mm, 3 μ) column with a mobile phase consisting of methanol: 10 mM ammonium acetate, 95:05 (v/v) at 0.6 mL/min flow rate. The temperature of the column oven was set at 40 °C during analysis. 10 µL samples were injected for quantification.
For extraction of apigenin, isovitexin, emodin, luteolin, THF, liquid-liquid extraction (LLE) method was applied for processing rat plasma. Plasma (100 µL) was incubated with 50 µL β-glucuronidase enzyme (2 mg/mL in 100 mM ammonium acetate buffer pH 5), and 50 µL ammonium acetate buffer (100 mM, pH 5) for 2 h at 37°C on water shaking bath. 200 µL ACN containing IS (FFA, 100 ng/mL) was added to plasma, vortex for 15 sec, and then 100 µL 0.1% formic acid (in 10 mM ammonium formate) was added. After vortexing for 5 min on vortexer (IKA^(R) VIBRAX VXR basic) at 1200 rpm, 2 mL ethyl acetate was added. The mixture was again vortexed for 10 min and then centrifuged at 10000 rpm for 5 min. The supernatant (1.5 mL) was transferred into Ria vial and completely dried in a TurboVap. The dried residue was reconstituted with 100 µL of mobile phase and analyzed by LC-MS/MS[44].
For determination of osteogenic compounds in the plasma of rats given CSE-Bu and CSE-BuF, we recruited male Sprague Dawley (SD) rats (220 ± 20 g) and were fasted overnight with free access to water. Rats were divided into 2 groups consisting of 6/group. One group received CSE-Bu (250 mg/kg/oral) and the other received CSE-BuF (250 mg/kg/oral). Blood (300 µL) was collected into 0.5 ml centrifuged tube containing EDTA at 0.25, 0.5, 1, 2, 4, 8, 12, 24, and 48 h and plasma was separated followed by centrifugation at 10000 rpm for 10 min and stored at -80 °C for further analysis. For pharmacokinetic analysis, plasma concentration versus time was plotted and analyzed by non-compartmental analysis method using WinNonlin (Pharsight, Mountain View, CA) software.

[1] = set-up: method as in PMID 30703497; settings: cited from earlier work
bone = settings: cited from earlier work
[2] = type: in vivo
Method: (§1) All treatments lasted for 4 weeks.
Body composition of live rats was analyzed using an Echo-MRI Body Composition Analyzer E26-226-RM (EchoMRI LLC, USA) as per our previously described method[14],[47]–[50].

femur diaphysis = test: GIO model: bone dynamic histomorphometry (double calcein labeling); type: in vivo, male SD rats; settings: versus control (Veh)
Method: as §1
For dynamic histomorphometric measurements, double calcein labeling was performed with an interval of 10 days between two calcein injections. We measured the periosteal perimeter, single-labeled surface (sLS), double labeled surface (dLS), and interlabeled thickness (IrLTh).

[3] = test system: L5 vertebra and femur diaphysis; test: GIO model: bone strength (L5 compression, femur 3-point bending); type: in vivo, male SD rats
Method: as §1
Bone mechanical strength was measured by three-point bending test for femur diaphysis and compression test for L5 vertebrae using a bone strength tester TK 252 C (Muromachi Kikai Co. Ltd, Tokyo, Japan) according to a previously published protocol[14],[52].

[4] = test system: serum PINP, CTX-I, sclerostin (SOST); test: GIO model: serum biochemical markers by ELISA; type: in vivo, male SD rats
Method: as §1
(§2) The serum samples were collected from blood by centrifugation at 3000 rpm. Serum cross-linked C-telopeptide of Type I collagen (CTX-I), procollagen type I N-terminal propeptide (PINP), sclerostin (SOST), interleukin 1 beta (IL-1β) levels were determined by ELISA (MyBioSource, USA) following the manufacturer’s protocols.

miR-29a, miR-17, miR-20a = test: GIO model: miRNA expression in bones (TaqMan assay); set-up: species or system male SD rats; settings: rat, in vivo
Excerpt: as §1
TaqMan assay (Thermo Fisher Scientific, USA) was used to determine miRNA expression in bones. Specific assay was designed based on published sequence using Thermo Fisher miRNA assay design tool. Assay ID of different miRNA was; hsa-miR-29a (OO2112), hsa-miR-17 (OO2308), hsa-miR-20a (OOO580) and U6 snRNA (OO1973)[54].

[5] = test system: GILZ mRNA in thymus and bone; serum IL-1β; test: Evaluation of the anti-inflammatory response (GILZ mRNA, serum IL-1β); set-up: species or system male SD rats; settings: rat, in vivo
Method: as §2
Primer sequences are listed below:
Serum IL-1β level were measured to evaluate the effect of CSE-BuF on glucocorticoid-mediated anti-inflammatory response.

gastrocnemius muscle = test: GIO model: muscle histomorphometry; type: in vivo, male SD rats; settings: versus control
Method: as §1
Gastrocnemius muscles were carefully dissected and stored in chilled PBS for 48 h. Tissues were then transferred to 30% sucrose solution (in PBS) at 4 °C until they sank to the bottom. Tissues were embedded in OCT tissue freezing medium (Leica Bio systems, India) and cryo-sections (7 µm) were made using a Cryotome™ FSE Cryostat (Thermo Scientific). Tissue sections were collected on poly-L-lysine coated slides. For H&E staining, sections were rehydrated in PBS for 10 min and fixed in 10% formalin for 3 min. Then H&E staining was performed and mounted with DPX (Sigma). Quantitative analysis for determining cross-sectional area and Feret’s diameter of the muscle fibers were performed using Image J software[50],[56].

[6] = test system: atrogin 1 and MuRF1 in gastrocnemius muscle; test: GIO model: immunoblotting of muscle atrogenes; set-up: species or system male SD rats; settings: rat, in vivo
Method: as §1
Gastrocnemius muscle samples were collected from each group and protein lysates were prepared to determine the levels of muscle atrogenes [atrogin 1], and muscle ring finger protein (MuRF1). Relative expression of these proteins was detected by immunoblot analysis using specific antibodies againts atrogin 1 (Abcam; 1:1000 dilution), MuRF1 (Santa Cruz Biotechnology; 1:1000 dilution), and GAPDH (Merck Millipore; 1:1000 dilution). Densitometric analyses of immunoblots were performed using ImageJ software.

[7] = test system: OCN, TRAP, DMP-1, MEPE, RANKL mRNA in bones; test: GIO model: osteoblast-, osteoclast- and osteocyte-specific genes in bones by qPCR; settings: rat, in vivo
[8] = in vivo, AUC, CSE-BuF at 250 mg/kg orally, rat plasma, Mean ± SD
[9] = in vivo, CSE-BuF at 250 mg/kg orally, rat plasma, Mean ± SD
[10] = 4 weeks, MP 5 mg/kg s.c. daily, CSE-BuF 50 mg/kg oral daily, mean ± SEM, n = 10/group

Row | Compound | AUC (in vivo; po, AUC) | Cmax (in vivo; po) | plasma level after single oral dosing of CSE-Bu (in words) (in vivo) | plasma level after single oral dosing of CSE-BuF (in words) (in vivo) | AUC (in vivo; [8]) | Cmax (in vivo; [9]) | in vivo bone conserving effect (bone) | increase of relative bioavailability by CSE-BuF compared to CSE-Bu (in vivo; po) | %Fr (relative bioavailability) (in vivo; po) | also measured
1 | O=c1cc(-c2ccc(O)c(O)c2)oc2cc(O)ccc12 [3′,4′,7-trihydroxyflavone (THF), 3′,4′,7-trihydroxyflavone] | 764 ± 382 ng·h/mL | 201 ± 107 ng/mL | not detectable | detectable and measured in plasma |  |  |  |  |  | 
2 | O=c1cc(-c2ccc(O)cc2)oc2cc(O)c([C@@H]3O[C@H](CO)[C@@H](O)[C@H](O)[C@H]3O)c(O)c12 [Apigenin 6-C-glucoside Or Isovitexin, Apigenin 6-C-glucoside] |  |  | not detectable | detectable and measured in plasma | 17.9 ± 10.4 ng·h/mL | 7.74 ± 4.29 ng/mL |  |  |  | osteogenic effect in vitro among compounds of CSE-Bu [1]: best osteogenic effect in vitro; in vivo osteogenic effect (bone; mice, ref unpublished data, S. Pal and N. Chattopadhyay): has in vivo osteogenic effect in mice
3 | O=c1cc(-c2ccc(O)cc2)oc2cc(O)cc(O)c12 [Apigenin] | 2.2 ± 1.15 ng·h/mL | 3.98 ± 3.03 ng/mL | not detectable | detectable and measured in plasma |  |  | in vivo bone conserving effect has been reported |  |  | 
4 | Cc1cc(O)c2c(c1)C(=O)c1cc(O)cc(O)c1C2=O [Emodin] |  |  | could be measured in plasma | increases | 239 ± 31.1 ng·h/mL | 29.2 ± 13 ng/mL | in vivo bone conserving effect has been reported | 279% | 379.68 ± 87.63% | AUC (in vivo; in vivo, AUC, CSE-Bu at 250 mg/kg orally, rat plasma, Mean ± SD): 69.3 ± 33.2 ng·h/mL; Cmax (in vivo; in vivo, CSE-Bu at 250 mg/kg orally, rat plasma, Mean ± SD): 12.3 ± 3.8 ng/mL
5 | O=c1cc(-c2ccc(O)c(O)c2)oc2cc(O)cc(O)c12 [Luteolin] | 259 ± 144 ng·h/mL |  | could be measured in plasma | increases |  |  | in vivo bone conserving effect has been reported | 36% | 136.94 ± 17.14% | AUC (in vivo; po): 456.33 ± 131.28 ng·h/mL
6 | C[C@H]1C[C@@H]2[C@H]([C@@H](O)C[C@@]3(C)[C@H]2CC[C@]3(O)C(=O)CO)[C@@]2(C)C=CC(=O)C=C12 [MP, Methylprednisolone] |  |  |  |  |  |  |  |  |  | Body weight [2, 10]: 239.86 ± 5.71 gm; Fat Mass [2, 10]: 6.12 ± 0.58 %; Lean Mass [2, 10]: 71.96 ± 2.43 %; decrease of fat mass compared to control ([2]; rat, in vivo): 40%; decrease of lean mass compared to control ([2]; rat, in vivo): 11%; mineralizing surface (pMS/BS), mineral apposition rate (pMAR) and bone formation rate (pBFR/BS) (femur diaphysis): significant decreases; strength parameters (peak load, energy to failure and stiffness) [3]: decreased all strength parameters; serum sclerostin ([4]; rat, in vivo): significantly increased; serum CTX-I (bone resorption marker) ([4]; versus control (Veh)): increased; serum PINP (bone formation marker) ([4]; versus control (Veh)): suppressed; levels of miRNA 17, 20a and 29a in bones (miR-29a, miR-17, miR-20a): significant decreases; GILZ mRNA in thymus and bone [5]: robust increase; serum IL-1β [5]: suppressed; cross-sectional area and Feret's diameter of gastrocnemius muscle (gastrocnemius muscle): significantly reduced; atrogin and MuRF-1 protein levels in muscle [6]: increased; RANKL mRNA in bones [7]: robust increase; TRAP mRNA in bones [7]: robust increase; mRNA levels of osteocyte markers DMP-1 and MEPE in bones [7]: significant decrease; osteocalcin (OCN) mRNA level in bones [7]: significantly suppressed
